Data as given in EP4745137A1 (Gluetacs Therapeutics (Shanghai) Co., Ltd., priority 2023, dated 2025).

Legend:
[1] = target: T1, IKZF3 (Homo sapiens, UniProt Q96SW2+Q9UKT9); test: Western-blot assay of substrate protein degradation in hPBMCs, IKZF3; format: cell-based; details: 24 hours of compound treatment, 50 nM and 500 nM tested (concentration behind the class not stated)
T1 construct: endogenous in cells; host or cells: hPBMCs (Milecell Biotechnologies)

[2] = target: T2, IKZF2 (Homo sapiens, UniProt Q96SW2+Q9UKS7); test: Western-blot assay of substrate protein degradation in hPBMCs, IKZF2; format: cell-based; details: 24 hours of compound treatment, 50 nM and 500 nM tested (concentration behind the class not stated)
T2 construct: endogenous in cells; host or cells: hPBMCs (Milecell Biotechnologies)
T2 sequence (Q9UKS7 whole entry): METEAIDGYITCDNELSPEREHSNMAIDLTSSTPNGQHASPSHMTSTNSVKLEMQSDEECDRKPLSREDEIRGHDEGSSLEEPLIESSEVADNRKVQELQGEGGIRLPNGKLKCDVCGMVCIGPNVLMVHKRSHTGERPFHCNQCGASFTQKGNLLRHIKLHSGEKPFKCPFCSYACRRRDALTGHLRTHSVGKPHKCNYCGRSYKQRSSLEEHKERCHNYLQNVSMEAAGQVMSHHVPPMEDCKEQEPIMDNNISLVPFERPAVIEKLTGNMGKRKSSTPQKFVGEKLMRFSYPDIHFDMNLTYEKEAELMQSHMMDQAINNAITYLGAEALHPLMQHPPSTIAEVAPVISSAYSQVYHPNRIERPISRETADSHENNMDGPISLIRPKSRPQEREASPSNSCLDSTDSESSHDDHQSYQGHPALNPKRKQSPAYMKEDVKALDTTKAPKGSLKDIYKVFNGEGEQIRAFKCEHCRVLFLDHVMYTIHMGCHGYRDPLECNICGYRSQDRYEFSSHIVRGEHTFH
T2 sequence (Q96SW2 whole entry): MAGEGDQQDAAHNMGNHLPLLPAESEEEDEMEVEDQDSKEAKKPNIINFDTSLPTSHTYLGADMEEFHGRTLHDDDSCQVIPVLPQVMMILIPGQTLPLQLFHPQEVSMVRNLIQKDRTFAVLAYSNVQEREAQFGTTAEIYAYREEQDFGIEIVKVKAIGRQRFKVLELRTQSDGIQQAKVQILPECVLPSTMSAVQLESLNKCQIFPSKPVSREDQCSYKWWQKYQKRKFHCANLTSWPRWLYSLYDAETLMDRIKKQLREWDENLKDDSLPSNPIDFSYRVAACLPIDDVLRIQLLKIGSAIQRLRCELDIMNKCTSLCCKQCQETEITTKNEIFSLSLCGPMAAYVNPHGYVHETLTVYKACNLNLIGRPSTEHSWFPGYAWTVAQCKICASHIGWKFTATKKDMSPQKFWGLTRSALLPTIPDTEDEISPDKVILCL
T2 sequence (Q16531 whole entry partner): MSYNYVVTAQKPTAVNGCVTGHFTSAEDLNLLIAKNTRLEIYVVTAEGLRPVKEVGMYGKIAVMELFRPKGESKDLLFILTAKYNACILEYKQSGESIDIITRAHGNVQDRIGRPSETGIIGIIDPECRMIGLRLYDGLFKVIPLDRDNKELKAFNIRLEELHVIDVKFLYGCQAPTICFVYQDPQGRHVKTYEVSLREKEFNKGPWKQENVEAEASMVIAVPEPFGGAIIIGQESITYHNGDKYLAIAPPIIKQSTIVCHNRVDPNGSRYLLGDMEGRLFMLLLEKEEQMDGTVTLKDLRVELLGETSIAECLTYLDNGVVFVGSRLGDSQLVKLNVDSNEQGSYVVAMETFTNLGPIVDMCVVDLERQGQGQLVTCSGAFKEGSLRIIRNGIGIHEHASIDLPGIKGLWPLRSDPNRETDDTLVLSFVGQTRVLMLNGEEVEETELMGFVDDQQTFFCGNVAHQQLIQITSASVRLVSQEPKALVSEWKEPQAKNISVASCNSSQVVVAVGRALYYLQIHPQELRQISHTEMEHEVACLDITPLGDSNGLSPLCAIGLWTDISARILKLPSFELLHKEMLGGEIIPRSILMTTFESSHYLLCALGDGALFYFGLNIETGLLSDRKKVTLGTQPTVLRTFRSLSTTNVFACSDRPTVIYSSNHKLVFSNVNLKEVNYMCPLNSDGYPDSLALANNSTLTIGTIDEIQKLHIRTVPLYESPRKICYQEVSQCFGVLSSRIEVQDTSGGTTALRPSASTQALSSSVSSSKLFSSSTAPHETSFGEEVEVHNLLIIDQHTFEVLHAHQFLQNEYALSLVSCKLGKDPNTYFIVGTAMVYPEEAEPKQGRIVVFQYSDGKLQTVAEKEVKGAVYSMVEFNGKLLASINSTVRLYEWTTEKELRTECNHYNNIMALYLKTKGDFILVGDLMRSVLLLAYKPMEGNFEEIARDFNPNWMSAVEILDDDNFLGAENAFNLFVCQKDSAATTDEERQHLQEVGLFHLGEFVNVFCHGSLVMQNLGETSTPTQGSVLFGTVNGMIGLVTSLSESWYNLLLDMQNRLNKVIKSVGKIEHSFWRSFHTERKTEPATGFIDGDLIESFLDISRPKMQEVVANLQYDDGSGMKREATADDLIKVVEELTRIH

[3] = test system: MV-4-11; test: Tumor cell proliferation inhibition (CellTiter-Meiluncell Luminescent Cell Viability Assay), MV-4-11; details: Homo sapiens, MV4-11, read-out: inhibitory activity (IC50, nM) against tumor cells proliferation, MV-4-11
Procedure: (§1) The tumor cells used herein were cultured in a cell culture medium listed in table 2 at 37°C in an incubator with 5% CO2. Prior to experimentation, all cell lines used were correctly identified by STR profiling, and tested negative for mycoplasma contamination using a mycoplasma detection kit through routine screenings.
(§2) On the following day, the test compounds of the present disclosure were subjected to serial dilution. […] Subsequently, 0.5 µL of the test compound dilution was transferred into the 96-well plate containing the cells, with each well containing 100 µL of cell culture medium. […] Into the 96-well plate, the diluted test compounds and corresponding detection reagents were added, resulting in final test compound concentrations of 500 nM and 10 nM, respectively.
(§3) After the cells were treated with the compounds of the present disclosure for a specified period (the treatment durations were shown in Table 3), the cell viability assay reagent was added to the culture medium according to the kit's instructions to determine cell viability. […] All controls were treated using the same procedure as the compounds of the present disclosure. The growth inhibition curves for the compounds of the present disclosure were plotted using Prism GraphPad software, and the IC50 values were calculated therefrom.

[4] = target: T3, IKZF1 (Homo sapiens, UniProt Q13422+Q96SW2); test: Western-blot assay of substrate protein degradation in hPBMCs, IKZF1; format: cell-based; details: 24 hours of compound treatment, 50 nM and 500 nM tested (concentration behind the class not stated)
T3 construct: endogenous in cells; host or cells: hPBMCs (Milecell Biotechnologies)
T3 sequence (Q13422 whole entry): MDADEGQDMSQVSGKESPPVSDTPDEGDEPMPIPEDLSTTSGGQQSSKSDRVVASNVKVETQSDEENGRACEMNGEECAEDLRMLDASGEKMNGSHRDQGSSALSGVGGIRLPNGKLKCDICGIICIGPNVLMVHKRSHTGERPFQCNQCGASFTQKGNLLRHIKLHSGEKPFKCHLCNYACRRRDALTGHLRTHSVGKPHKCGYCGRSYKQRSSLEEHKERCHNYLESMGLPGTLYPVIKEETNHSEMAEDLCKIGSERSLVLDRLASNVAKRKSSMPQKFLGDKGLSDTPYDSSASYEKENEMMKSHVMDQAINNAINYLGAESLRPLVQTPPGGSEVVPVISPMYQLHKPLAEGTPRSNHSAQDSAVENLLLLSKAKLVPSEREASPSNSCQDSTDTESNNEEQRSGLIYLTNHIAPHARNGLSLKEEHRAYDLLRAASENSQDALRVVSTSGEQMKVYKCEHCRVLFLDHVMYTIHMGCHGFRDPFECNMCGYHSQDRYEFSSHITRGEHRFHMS
T3 sequence (Q96SW2 whole entry): as the sequence (Q96SW2 whole entry) above
T3 sequence (Q16531 whole entry partner): as the sequence (Q16531 whole entry partner) above

[5] = target: T4, human Cereblon WT GST-tagged protein (Homo sapiens, UniProt Q96SW2); test: CRBN-binding affinity by HTRF (CEREBLON BINDING kit); details: HTRF inhibitory activity, CEREBLON BINDING kit; read-out: HTRF IC50
T4 construct: purchased CISBIO 64BDCRBNPEH
T4 sequence (Q96SW2 whole entry): as the sequence (Q96SW2 whole entry) above

[6] = test system: CCRF-CEM; test: Tumor cell proliferation inhibition (CellTiter-Meiluncell Luminescent Cell Viability Assay), CCRF-CEM; details: Homo sapiens, read-out: inhibitory activity (IC50, nM) against tumor cells proliferation, CCRF-CEM
Procedure: as §1
On the following day, the test compounds of the present disclosure were subjected to serial dilution. […] Subsequently, 0.5 µL of the test compound dilution was transferred into the 96-well plate containing the cells, with each well containing 100 µL of cell culture medium. […] Into the 96-well plate, the diluted test compounds and corresponding detection reagents were added, resulting in final test compound concentrations of 500 nM and 10 nM, respectively. The experimental procedure is described below using the diluted 2 µM test compound as an example.
as §3

[7] = target: T5, WEE1 (Homo sapiens, UniProt P30291+Q96SW2); test: Western-blot assay of substrate protein degradation in hPBMCs, WEE1; format: cell-based; details: 24 hours of compound treatment, 50 nM and 500 nM tested (concentration behind the class not stated)
T5 construct: endogenous in cells; host or cells: hPBMCs (Milecell Biotechnologies)

[8] = test system: Jurkat; test: Tumor cell proliferation inhibition (CellTiter-Meiluncell Luminescent Cell Viability Assay), Jurkat; details: Homo sapiens, read-out: inhibitory activity (IC50, nM) against tumor cells proliferation, Jurkat
[9] = test system: Human acute T lymphocytic leukemia cells (Molt-4); test: Tumor cell proliferation inhibition (CellTiter-Meiluncell Luminescent Cell Viability Assay), Molt-4; details: MOLT-4, read-out: inhibitory activity (IC50, nM) against tumor cells proliferation, Molt-4
[10] = test system: NCI-H1975; test: Tumor cell proliferation inhibition (CellTiter-Meiluncell Luminescent Cell Viability Assay), NCI-H1975; details: Homo sapiens, NCI-H1975, read-out: inhibitory activity (IC50, nM) against tumor cells proliferation, H1975
[11] = target: T6, CK1α (Homo sapiens, UniProt P48729+Q96SW2); test: Western-blot assay of substrate protein degradation in hPBMCs, CK1α; format: cell-based; details: 24 hours of compound treatment, 50 nM and 500 nM tested (concentration behind the class not stated)
T6 construct: endogenous in cells; host or cells: hPBMCs (Milecell Biotechnologies)
T6 sequence (P48729 whole entry): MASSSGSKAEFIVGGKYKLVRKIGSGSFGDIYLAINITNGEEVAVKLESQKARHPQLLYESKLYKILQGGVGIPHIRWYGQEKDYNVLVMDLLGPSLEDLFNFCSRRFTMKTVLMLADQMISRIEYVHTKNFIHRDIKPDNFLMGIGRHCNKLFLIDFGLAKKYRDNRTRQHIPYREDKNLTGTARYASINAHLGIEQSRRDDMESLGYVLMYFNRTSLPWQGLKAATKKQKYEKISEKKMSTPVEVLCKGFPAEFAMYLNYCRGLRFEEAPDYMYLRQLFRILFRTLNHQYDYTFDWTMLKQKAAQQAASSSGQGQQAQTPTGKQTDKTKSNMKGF
T6 sequence (Q96SW2 whole entry): as the sequence (Q96SW2 whole entry) above
T6 sequence (Q16531 whole entry partner): as the sequence (Q16531 whole entry partner) above

[12] = test system: MM.1S; test: Tumor cell proliferation inhibition (CellTiter-Meiluncell Luminescent Cell Viability Assay), MM.1S; details: Homo sapiens, MM1.S, read-out: inhibitory activity (IC50, nM) against tumor cells proliferation, MM.1S
Procedure: as §1, §2, §3

[13] = target: T7, GSPT1 (Homo sapiens, UniProt P15170+Q96SW2); test: Western-blot assay of substrate protein degradation in hPBMCs, GSPT1; format: cell-based; details: 24 hours of compound treatment, 50 nM and 500 nM tested (concentration behind the class not stated)
T7 construct: endogenous in cells; host or cells: hPBMCs (Milecell Biotechnologies)
T7 sequence (P15170 whole entry): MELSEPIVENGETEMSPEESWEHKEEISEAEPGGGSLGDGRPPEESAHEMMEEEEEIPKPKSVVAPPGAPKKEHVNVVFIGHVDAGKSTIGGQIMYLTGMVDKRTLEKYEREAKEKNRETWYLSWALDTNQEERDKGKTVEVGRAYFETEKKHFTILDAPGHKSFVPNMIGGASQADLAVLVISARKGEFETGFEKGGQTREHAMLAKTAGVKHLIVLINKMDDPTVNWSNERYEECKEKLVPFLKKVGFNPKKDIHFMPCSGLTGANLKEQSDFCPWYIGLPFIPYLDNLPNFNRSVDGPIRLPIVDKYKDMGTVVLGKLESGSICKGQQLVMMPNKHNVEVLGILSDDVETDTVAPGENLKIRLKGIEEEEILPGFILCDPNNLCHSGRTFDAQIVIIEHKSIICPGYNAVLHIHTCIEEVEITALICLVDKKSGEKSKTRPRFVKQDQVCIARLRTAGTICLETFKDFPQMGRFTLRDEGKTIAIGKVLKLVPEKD
T7 sequence (Q96SW2 whole entry): as the sequence (Q96SW2 whole entry) above
T7 sequence (Q16531 whole entry partner): as the sequence (Q16531 whole entry partner) above

[14] = test system: TMD8; test: Tumor cell proliferation inhibition (CellTiter-Meiluncell Luminescent Cell Viability Assay), TMD8; details: Homo sapiens, TMD8, read-out: inhibitory activity (IC50, nM) against tumor cells proliferation, TMD8
[15] = test system: SR; test: Tumor cell proliferation inhibition (CellTiter-Meiluncell Luminescent Cell Viability Assay), SR; details: Homo sapiens, read-out: inhibitory activity (IC50, nM) against tumor cells proliferation, SR
Procedure: as §1, §2, §3

T1 sequence (Q9UKT9 whole entry): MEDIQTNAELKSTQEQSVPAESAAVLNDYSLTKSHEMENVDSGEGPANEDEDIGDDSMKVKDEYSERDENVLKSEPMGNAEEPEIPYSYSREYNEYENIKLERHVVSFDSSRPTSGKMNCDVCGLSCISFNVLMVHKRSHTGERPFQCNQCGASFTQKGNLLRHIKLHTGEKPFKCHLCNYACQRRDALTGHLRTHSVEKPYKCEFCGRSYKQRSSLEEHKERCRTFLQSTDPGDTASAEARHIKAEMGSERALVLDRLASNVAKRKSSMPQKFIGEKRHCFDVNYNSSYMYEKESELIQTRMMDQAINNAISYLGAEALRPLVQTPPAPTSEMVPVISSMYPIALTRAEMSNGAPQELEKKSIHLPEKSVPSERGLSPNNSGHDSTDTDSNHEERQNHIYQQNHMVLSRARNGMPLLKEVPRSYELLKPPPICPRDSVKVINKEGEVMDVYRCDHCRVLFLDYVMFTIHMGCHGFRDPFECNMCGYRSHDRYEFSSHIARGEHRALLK
T1 sequence (Q96SW2 whole entry): as the sequence (Q96SW2 whole entry) above
T1 sequence (Q16531 whole entry partner): as the sequence (Q16531 whole entry partner) above

IC50 [3]	IC50 [5]	IC50 [6]	IC50 [8]	IC50 [9]	IC50 [10]	IC50 [12]	IC50 [14]	IC50 [15]	Structure (SMILES)	IKZF3 substrate protein remaining % [1]	IKZF2 substrate protein remaining % [2]	IKZF 1 substrate protein remaining % [4]	Weel substrate protein remaining % [7]	CK1a substrate protein remaining % [11]	GSPT1 substrate protein remaining % [13]
10 to 50 nM	1000 to 1500 nM	10 to 50 nM	50 to 100 nM	10 to 50 nM	500 to 1000 nM	100 to 500 nM	–	–	Cn1cc(C2=CCN(Cc3ccc4c(c3)C(=O)N(C3CCC(=O)NC3=O)C4=O)CC2)c2ccc(F)cc21 (stereo not shown) [GT-06636, 2-(2,6-dioxopiperidin-3-yl)-5-((4-(6-fluoro-1-methyl-1H-indol-3-yl)-3,6-dihydropyridin-1(2H)-yl)methyl)isoindoline-1,3-dione]	A (0% ≤ substrate protein remaining % ≤ 80%)	A (0% ≤ substrate protein remaining % ≤ 80%)	A (0% ≤ substrate protein remaining % ≤ 80%)	A (0% ≤ substrate protein remaining % ≤ 80%)	A (0% ≤ substrate protein remaining % ≤ 80%)	A (0% ≤ substrate protein remaining % ≤ 80%)
10 to 50 nM	1500 to 1900 nM	50 to 100 nM	100 to 500 nM	100 to 500 nM	–	500 to 1000 nM	–	–	O=C1CCC(N2C(=O)c3ccc(CN4CCN(c5n[nH]c6cc(F)ccc56)CC4)cc3C2=O)C(=O)N1 (stereo not shown) [GT-06632, 2-(2,6-dioxopiperidin-3-yl)-5-((4-(6-fluoro-1H-indazol-3-yl)piperazin-1-yl)methyl)isoindoline-1,3-dione]	A (0% ≤ substrate protein remaining % ≤ 80%)	A (0% ≤ substrate protein remaining % ≤ 80%)	A (0% ≤ substrate protein remaining % ≤ 80%)	A (0% ≤ substrate protein remaining % ≤ 80%)	A (0% ≤ substrate protein remaining % ≤ 80%)	A (0% ≤ substrate protein remaining % ≤ 80%)
50 to 100 nM	500 to 1000 nM	10 to 50 nM	50 to 100 nM	10 to 50 nM	100 to 500 nM	100 to 500 nM	500 to 1000 nM	500 to 1000 nM	O=C1CCC(N2C(=O)c3ccc(CN4CC=C(c5ncnc6sc(-c7ccccc7)cc56)CC4)cc3C2=O)C(=O)N1 (stereo not shown) [GT-06675, 2-(2,6-dioxopiperidin-3-yl)-5-((4-(6-phenylthieno[2,3-d]pyrimidin-4-yl)-3,6-dihydropyridin-1(2H)-yl)methyl)isoindoline-1,3-dione]	B (80%< substrate protein remaining %≤ 100%)	B (80%< substrate protein remaining %≤ 100%)	B (80%< substrate protein remaining %≤ 100%)	B (80%< substrate protein remaining %≤ 100%)	A (0% ≤ substrate protein remaining % ≤ 80%)	B (80%< substrate protein remaining %≤ 100%)
